PubChem BioAssay (NCI)
Where “and” joins values, the source holds several entries; their conditions need not be identical. Equal values may be shown once.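 How tested: cells in 96-well plates exposed to compound for 48 hours at five concentrations. GI50 marks 50% less growth. TGI: concentration producing complete growth inhibition.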

Legend:
Assay in all cases: DTP human tumour cell line panel, 48 h
[1] = system: IGROV1 ovarian
[2] = system: UO-31 renal
[3] = system: LOX IMVI melanoma
[4] = system: SW-620 colon
[5] = system: KM20L2 colon
[6] = system: CCRF-CEM leukemia
[7] = system: MALME-3M melanoma
[8] = system: SR leukemia
[9] = system: SNB-78 CNS
[10] = system: HOP-92 NSCLC
[11] = system: NCI-H23 lung
[12] = system: HOP-18 NSCLC
[13] = system: HT29 colon
[14] = system: SNB-75 CNS
[15] = system: UACC-257 melanoma
[16] = system: SK-MEL-28 melanoma
[17] = system: UACC-62 melanoma
[18] = system: M14 melanoma
[19] = system: A498 renal
[20] = system: DLD-1 colon
[21] = system: SF-539 CNS
[22] = system: DMS 114 small cell lung
[23] = system: SF-268 CNS
[24] = system: RPMI-8226 leukemia
[25] = system: K-562 leukemia
[26] = system: EKVX NSCLC
[27] = system: M19-MEL melanoma
[28] = system: SF-295 CNS
[29] = system: SK-MEL-5 melanoma
[30] = system: HL-60(TB) leukemia
[31] = system: ACHN renal
[32] = system: SK-OV-3 ovarian
[33] = system: U251 CNS
[34] = system: MOLT-4 leukemia
[35] = system: SNB-19 CNS
[36] = system: OVCAR-8 ovarian
[37] = system: HCC-2998 colon
[38] = system: TK-10 renal
[39] = system: NCI-H522 lung
[40] = system: OVCAR-3 ovarian
[41] = system: COLO 205 colon
[42] = system: KM12 colon
[43] = system: RXF 393 renal
[44] = system: 786-0 renal
[45] = system: SK-MEL-2 melanoma
[46] = system: CAKI-1 renal
[47] = system: LXFL 529 NSCLC
[48] = system: HOP-62 NSCLC
[49] = system: OVCAR-4 ovarian
[50] = system: HCT-15 colon
[51] = system: DMS 273 small cell lung
[52] = system: OVCAR-5 ovarian
[53] = system: SN12C renal
[54] = system: NCI-H460 lung
[55] = system: HCT-116 colon
[56] = system: A549 NSCLC
[57] = system: NCI-H226 lung
[58] = system: MCF7 breast
[59] = system: NCI/ADR-RES ovarian
[60] = system: MDA-MB-435
[61] = system: T-47D breast
[62] = system: MDA-MB-231 breast
[63] = system: PC-3 prostate
[64] = system: HS 578T breast
[65] = system: DU-145 prostate
[66] = system: BT-549 breast
[67] = system: MDA-N
[68] = system: XF 498 CNS

## O=C1NC(=S)NC(=O)C1=Cc1ccc2ccccc2n1
[1]
  TGI: > 100 µM
[2]
  TGI: > 100 µM
[3]
  TGI: > 100 µM
[4]
  TGI: > 100 µM
[5]
  TGI: > 100 µM
[6]
  TGI: > 100 µM
[7]
  TGI: > 100 µM
[8]
  TGI: > 100 µM
[9]
  TGI: > 100 µM
[10]
  TGI: > 100 µM
[11]
  TGI: > 100 µM
[12]
  TGI: > 100 µM
[13]
  TGI: > 100 µM
[14]
  TGI: > 100 µM
[15]
  TGI: > 100 µM
[16]
  TGI: > 100 µM
[17]
  TGI: > 100 µM
[18]
  TGI: > 100 µM
[19]
  TGI: > 100 µM
[20]
  TGI: > 100 µM
[21]
  TGI: > 100 µM
[22]
  TGI: > 100 µM
[23]
  TGI: > 100 µM
[24]
  TGI: > 100 µM
[25]
  TGI: > 100 µM
[26]
  TGI: > 100 µM
[27]
  TGI: > 100 µM
[28]
  TGI: > 100 µM
[29]
  TGI: > 100 µM
[30]
  TGI: > 100 µM
[31]
  TGI: > 100 µM
[32]
  TGI: > 100 µM
[33]
  TGI: > 100 µM
[34]
  TGI: > 100 µM
[35]
  TGI: > 100 µM
[36]
  TGI: > 100 µM
[37]
  TGI: > 100 µM
[38]
  TGI: > 100 µM
[39]
  TGI: > 100 µM
[40]
  TGI: > 100 µM
[41]
  TGI: > 100 µM
[42]
  TGI: > 100 µM
[43]
  TGI: > 100 µM
[44]
  TGI: > 100 µM
[45]
  TGI: > 100 µM
[46]
  TGI: > 100 µM
[47]
  TGI: > 100 µM
[48]
  TGI: > 100 µM
[49]
  TGI: > 100 µM
[50]
  TGI: > 100 µM
[51]
  TGI: > 100 µM
[52]
  TGI: > 100 µM
[53]
  TGI: > 100 µM
[54]
  TGI: > 100 µM
[55]
  TGI: > 100 µM
[56]
  TGI: > 100 µM
[57]
  TGI: > 100 µM

## N#Cc1c(-c2ccccc2)cc(-c2ccccc2)n(C2OC(CO)C(O)C(O)C2O)c1=O (centres undefined)
[3]
  TGI: > 100 µM
[6]
  TGI: > 100 µM
[8]
  TGI: > 100 µM
[10]
  GI50: 88.4 µM and 31.9 µM
  TGI: > 100 µM
[14]
  GI50: 34.4 µM and 14.5 µM
  TGI: > 100 µM and 80.9 µM
[17]
  TGI: > 100 µM
[24]
  TGI: > 100 µM
[25]
  TGI: > 100 µM
[30]
  TGI: > 100 µM
[34]
  TGI: > 100 µM
[47]
  TGI: > 100 µM

## Nc1ccc(-c2nc3cc(F)ccc3s2)cc1
[1]
  TGI: > 77.9 µM
[2]
  TGI: > 100 µM
[3]
  TGI: > 100 µM
[4]
  TGI: > 100 µM
[6]
  TGI: > 100 µM
[7]
  TGI: > 100 µM
[8]
  TGI: > 100 µM
[10]
  TGI: > 93.1 µM
[11]
  TGI: > 46.5 µM
[13]
  TGI: > 100 µM
[14]
  TGI: 50.7 µM
[15]
  TGI: > 100 µM
[16]
  TGI: > 100 µM
[17]
  TGI: > 100 µM
[18]
  TGI: > 100 µM
[19]
  TGI: > 100 µM
[21]
  TGI: > 100 µM
[58]
  TGI: > 63.2 µM
[23]
  TGI: > 100 µM
[59]
  TGI: > 100 µM
[24]
  TGI: > 100 µM
[25]
  TGI: > 100 µM
[26]
  TGI: > 46.6 µM
[28]
  TGI: > 85.7 µM
[29]
  TGI: > 100 µM
[30]
  TGI: > 100 µM
[31]
  TGI: > 61.7 µM
[32]
  TGI: > 100 µM
[60]
  TGI: > 100 µM
[61]
  TGI: > 100 µM
[33]
  TGI: > 80 µM
[34]
  TGI: > 100 µM
[35]
  TGI: > 100 µM
[62]
  TGI: 81.5 µM
[36]
  TGI: > 100 µM
[37]
  TGI: > 100 µM
[38]
  TGI: > 93.1 µM
[39]
  TGI: > 100 µM
[63]
  TGI: 45.8 µM
[40]
  TGI: > 100 µM
[41]
  TGI: > 100 µM
[64]
  TGI: > 100 µM
[42]
  TGI: > 100 µM
[43]
  TGI: > 100 µM
[44]
  TGI: > 100 µM
[65]
  TGI: > 100 µM
[66]
  TGI: > 100 µM
[45]
  TGI: > 100 µM
[46]
  TGI: > 100 µM
[48]
  TGI: 39.2 µM
[49]
  TGI: > 100 µM
[50]
  TGI: > 85.7 µM
[67]
  TGI: > 100 µM
[52]
  TGI: > 92.8 µM
[53]
  TGI: > 100 µM
[54]
  TGI: > 100 µM
[55]
  TGI: > 100 µM
[56]
  TGI: > 100 µM
[57]
  TGI: > 100 µM

## O=C1CC(c2c[nH]c3ccccc23)C(=O)N1c1ccccc1 (centres undefined)
[1]
  TGI: > 100 µM
[2]
  TGI: > 100 µM
[4]
  TGI: > 100 µM
[5]
  TGI: > 100 µM
[6]
  TGI: > 100 µM
[7]
  TGI: > 100 µM
[9]
  TGI: > 100 µM
[11]
  TGI: > 100 µM
[13]
  TGI: > 100 µM
[14]
  TGI: > 100 µM
[15]
  TGI: > 100 µM
[16]
  TGI: > 100 µM
[17]
  TGI: > 100 µM
[18]
  TGI: > 100 µM
[19]
  TGI: > 100 µM
[20]
  TGI: > 100 µM
[21]
  TGI: > 100 µM
[24]
  TGI: > 100 µM
[25]
  TGI: > 100 µM
[26]
  TGI: > 100 µM
[27]
  TGI: > 100 µM
[28]
  TGI: > 100 µM
[29]
  TGI: > 100 µM
[30]
  TGI: > 100 µM
[31]
  TGI: > 100 µM
[32]
  TGI: > 100 µM
[33]
  TGI: > 100 µM
[34]
  TGI: > 100 µM
[36]
  TGI: > 100 µM
[37]
  TGI: > 100 µM
[38]
  TGI: > 100 µM
[40]
  TGI: > 100 µM
[42]
  TGI: > 100 µM
[43]
  TGI: > 100 µM
[44]
  TGI: > 100 µM
[45]
  TGI: > 100 µM
[46]
  TGI: > 100 µM
[47]
  TGI: > 100 µM
[48]
  TGI: > 100 µM
[49]
  TGI: > 100 µM
[50]
  TGI: > 100 µM
[51]
  TGI: > 100 µM
[52]
  TGI: > 100 µM
[54]
  TGI: > 100 µM
[68]
  TGI: > 100 µM
[55]
  TGI: > 100 µM
[56]
  TGI: > 100 µM
[57]
  TGI: > 100 µM

## O=C(Nc1cccc(C(F)(F)F)c1)c1cc(-c2ccccc2)nc(=S)[nH]1
[2]
  TGI: > 100 µM
[3]
  TGI: > 100 µM
[4]
  TGI: > 100 µM
[5]
  TGI: > 100 µM
[7]
  TGI: > 100 µM
[8]
  TGI: > 100 µM
[10]
  TGI: > 100 µM
[12]
  TGI: > 100 µM
[13]
  TGI: > 100 µM
[15]
  TGI: > 100 µM
[18]
  TGI: > 100 µM
[27]
  TGI: > 100 µM
[28]
  TGI: > 100 µM
[30]
  TGI: > 100 µM
[35]
  TGI: > 100 µM
[36]
  TGI: > 100 µM
[37]
  TGI: > 100 µM
[40]
  TGI: > 100 µM
[41]
  TGI: > 100 µM
[42]
  TGI: > 100 µM
[45]
  TGI: > 100 µM
[46]
  TGI: > 100 µM
[47]
  TGI: > 100 µM
[48]
  TGI: > 100 µM
[49]
  TGI: > 100 µM
[50]
  TGI: > 100 µM
[51]
  TGI: > 100 µM
[52]
  TGI: > 100 µM
[53]
  TGI: > 100 µM
[54]
  TGI: > 100 µM
[55]
  TGI: > 100 µM
[57]
  TGI: > 100 µM
